We go through seven molecules from patent publication US8754071B2 (priority 2011, dated 2014).

Molecules are shown by their SMILES.

For the first assay, the target named is T1, c-kit (Homo sapiens, UniProt P10721).
T1 construct: human Mo7e cells which endogenously express c-kit; endogenous in cells; host or cells: human Mo7e cells (promegakaryocytic leukemia line), stimulated with human recombinant SCF
T1 sequence (P10721 26-976): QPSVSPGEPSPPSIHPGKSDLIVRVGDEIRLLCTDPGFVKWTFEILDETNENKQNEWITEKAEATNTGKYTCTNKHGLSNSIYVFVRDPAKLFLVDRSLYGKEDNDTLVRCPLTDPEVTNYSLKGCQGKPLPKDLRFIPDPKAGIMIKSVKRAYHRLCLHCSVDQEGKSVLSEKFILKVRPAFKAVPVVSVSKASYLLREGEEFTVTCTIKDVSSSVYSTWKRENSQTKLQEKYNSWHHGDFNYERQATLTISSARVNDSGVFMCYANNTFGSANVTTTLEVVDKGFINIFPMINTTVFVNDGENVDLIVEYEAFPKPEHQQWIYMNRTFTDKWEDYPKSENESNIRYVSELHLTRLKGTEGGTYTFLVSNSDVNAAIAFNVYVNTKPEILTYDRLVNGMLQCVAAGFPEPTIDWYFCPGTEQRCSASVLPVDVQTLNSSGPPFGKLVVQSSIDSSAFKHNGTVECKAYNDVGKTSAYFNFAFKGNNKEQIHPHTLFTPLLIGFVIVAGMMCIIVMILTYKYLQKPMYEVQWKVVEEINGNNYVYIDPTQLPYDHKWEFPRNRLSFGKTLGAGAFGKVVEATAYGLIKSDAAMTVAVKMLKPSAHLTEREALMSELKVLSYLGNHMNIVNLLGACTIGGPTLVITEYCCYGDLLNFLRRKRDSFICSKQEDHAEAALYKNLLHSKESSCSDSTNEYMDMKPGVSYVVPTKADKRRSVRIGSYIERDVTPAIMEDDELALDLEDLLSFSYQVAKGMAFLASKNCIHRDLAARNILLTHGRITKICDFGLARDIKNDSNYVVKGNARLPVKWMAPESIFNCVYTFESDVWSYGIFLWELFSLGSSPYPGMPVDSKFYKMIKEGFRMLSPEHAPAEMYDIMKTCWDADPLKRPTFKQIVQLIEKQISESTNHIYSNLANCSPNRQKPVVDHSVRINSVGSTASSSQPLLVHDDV
Description: Mo7e cell proliferation assay (SCF dependent proliferation). It counts as cell-based. The settings on record: Table 1; human Mo7e cells stimulated with SCF, 48 hours, CellTiter Glo; 1% FBS; read-out: c-kit (Mo7e). Summed up: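 Human Mo7e cells with endogenous c-kit, proliferation driven by SCF, 384-well format. After 48 h at 37 °C viability read by CellTiter-Glo luminescence. IC50 taken as concentration giving response halfway between baseline and maximum.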
As to `COC(=O)N1CC(c2nc(-c3ccc(C)c(NC(=O)c4cnc5ccc(C)cn45)c3)no2)C1` [F62, methyl 3-(3-(4-methyl-3-(6-methylimidazo[1,2-a]pyridine-3-carboxamido)phenyl)-1,2,4-oxadiazol-5-yl)azetidine-1-carboxylate], the IC50 stood at 36 nM.

The assay is the same for the next values; noted with them: Table 2; human Mo7e cells stimulated with SCF, 48 hours, CellTiter Glo; 1% FBS; read-out: c-kit (Mo7e).
Consider `COC(=O)N1CC(c2nc(-c3ccc(C)c(NC(=O)c4cnc5cc(C(F)(F)F)ccn45)c3)no2)C1` [F238], for which the IC50 was found to be 130 nM. On the same count and under the same terms, as for `COC(=O)N1CC(c2nc(-c3ccc(C)c(NC(=O)c4cnc5ccc(-n6ccnc6)cn45)c3)no2)C1` [F252], the figure is 421 nM. As to `Cc1ccc(-c2noc(CN3CC(CO)C3)n2)cc1NC(=O)c1cnc2ccccn12` [F181], the IC50 is 337 nM. Same read-out and setting: as for `Cc1ccc2ncc(C(=O)Nc3cc(-c4noc([C@@H]5CCN5)n4)ccc3C)n2c1` [F280], the figure is 1310 nM; as for `Cc1ccc(-c2noc(CNC(=O)C3CCOCC3)n2)cc1NC(=O)c1cnc2ccccn12` [F149], 684 nM. On the same count and under the same terms, the result for `CCS(=O)(=O)N1CC(c2nc(-c3ccc(F)c(NC(=O)c4cnc5ccccn45)c3)no2)C1` [F155] reads 120 nM.
